Experimental data: patent US9233979B2, “Compounds that are ERK inhibitors” (Merck Sharp & Dohme Corp., priority 2012, dated 2016)

Target: phosphorylated active hERK2 enzyme (Homo sapiens (Human), UniProt P28482)
Experiment: Active Human ERK2 (hERK2) Activity Assay (IMAP-FP)
Type: biochemical
Details: Table 6, 0.5 nM hERK2, 30 μM ATP, 10 point titration, read-out: AERK2 IC50
Method in brief: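 IMAP detection beads in buffer with 24 mM NaCl stopped the reaction, and fluorescence polarization was read after 60 min binding.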

Sequence of phosphorylated active hERK2 enzyme (P28482 whole entry): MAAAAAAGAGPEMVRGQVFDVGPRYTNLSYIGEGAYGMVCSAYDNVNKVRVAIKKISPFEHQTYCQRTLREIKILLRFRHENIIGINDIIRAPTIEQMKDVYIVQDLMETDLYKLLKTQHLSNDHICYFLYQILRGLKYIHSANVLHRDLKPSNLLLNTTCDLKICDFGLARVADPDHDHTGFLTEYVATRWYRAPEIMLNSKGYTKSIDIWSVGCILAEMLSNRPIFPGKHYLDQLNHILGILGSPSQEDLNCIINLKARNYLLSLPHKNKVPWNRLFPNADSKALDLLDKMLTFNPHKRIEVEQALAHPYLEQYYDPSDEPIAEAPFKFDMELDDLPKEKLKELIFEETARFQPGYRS

Compared with `COC(=O)Nc1n[nH]c2cc(NC(=O)N[C@H](C)c3ccccc3)nc(C)c12` [Example 338, methyl [4-methyl-6-({[(1R)-1-phenyl-ethyl]carbamoyl}-amino)-1H-pyrazolo[4,3-c]-pyridin-3-yl]-carbamate], `CC(=O)N(C)c1n[nH]c2cc(NC(=O)N[C@H](C)c3ccccc3)ncc12` [Example 349, N-methyl-N-[6-({[(1R)-1-phenyl-ethyl]carbamoyl}-amino)-1H-pyrazolo[4,3-c]-pyridin-3-yl]-acetamide] is 30-fold higher in IC50: 16.1 nM for the first, 484 nM for the second.

Compared with `COC[C@H](NC(=O)Nc1cc2[nH]nc(N3CCOCC3)c2cn1)c1ccc(F)cc1` [Example 339, (R)-1-(1-(4-fluorophenyl)-2-methoxyethyl)-3-(3-morpholino-1H-pyrazolo[4,3-c]-pyridin-6-yl)urea], `CC[C@@H](NC(=O)Nc1cc2[nH]nc(N3CCCC3)c2cn1)c1ccccn1` [Example 344, 1-[(1R)-1-pyridin-2-ylpropyl]-3-(3-pyrrolidin-1-yl-1H-pyrazolo[4,3-c]-pyridin-6-yl)urea] is 2600-fold higher in IC50: 0.4 nM for the first, 1020 nM for the second. The first is the more potent here.

First: CC(C)Nc1n[nH]c2cc(NC(=O)N[C@H](C)c3ccc(F)cc3)ncc12 [Example 340, (R)-1-(1-(4-fluorophenyl)ethyl)-3-(3-(isopropyl-amino)-1H-pyrazolo[4,3-c]-pyridin-6-yl)urea]
Second: CNc1n[nH]c2cc(NC(=O)N[C@H](C)c3ccc(Cl)cc3)ncc12 [Example 343, 1-[(1R)-1-(4-chlorophenyl)ethyl]-3-[3-(methyl-amino)-1H-pyrazolo[4,3-c]-pyridin-6-yl]urea]
The IC50 of the first is 4.9-fold lower: 1.6 nM for the first, 7.8 nM for the second.

Going from `C[C@@H](NC(=O)Nc1cc2[nH]nc(NCC(F)(F)F)c2cn1)c1ccccc1` [Example 341, 1-[(1R)-1-phenylethyl]-3-{3-[(2,2,2-trifluoro-ethyl)amino]-1H-pyrazolo[4,3-c]-pyridin-6-yl}urea] to `COC[C@@H](NC(=O)Nc1cc2[nH]nc(NCC(F)(F)F)c2cn1)c1ccccc1` [Example 342, 1-[(1S)-2-methoxy-1-phenylethyl]-3-{3-[(2,2,2-trifluoro-ethyl)amino]-1H-pyrazolo[4,3-c]-pyridin-6-yl}urea], the IC50 falls from 2.4 nM to 0.9 nM (2.7-fold).

First: CC[C@H](NC(=O)Nc1cc2[nH]nc(N3CCCC3)c2cn1)c1ccccn1 [Example 345, 1-[(1S)-1-pyridin-2-ylpropyl]-3-(3-pyrrolidin-1-yl-1H-pyrazolo[4,3-c]-pyridin-6-yl)urea]
Second: COC[C@@H](NC(=O)Nc1cc2[nH]nc(NC3CCC3)c2cn1)c1ccccc1 [Example 346, 1-[3-(cyclobutyl-amino)-1H-pyrazolo[4,3-c]-pyridin-6-yl]-3-[(1S)-2-methoxy-1-phenylethyl]urea]
The IC50 of the first is 34-fold higher: 13.8 nM for the first, 0.4 nM for the second. The second is the more potent here.

Going from `C[C@@H](NC(=O)Nc1cc2[nH]nc(NCC(=O)N(C)C)c2cn1)c1ccccc1` [Example 347, N,N-dimethyl-N~2~-[6-({[(1R)-1-phenylethyl]-carbamoyl}-amino)-1H-pyrazolo[4,3-c]-pyridin-3-yl]-glycinamide] to `C[C@@H](NC(=O)Nc1cc2[nH]nc(NCCC(=O)N(C)C)c2cn1)c1ccccc1` [Example 348, N,N-dimethyl-N~3~-[6-({[(1R)-1-phenylethyl]-carbamoyl}amino)-1H-pyrazolo[4,3-c]pyridin-3-yl]-beta-alaninamide], the IC50 falls from 18.3 nM to 3.1 nM (5.9-fold).

Compared with `CCN(C(C)=O)c1n[nH]c2cc(NC(=O)N[C@H](C)c3ccccc3)ncc12` [Example 350, N-ethyl-N-[6-({[(1R)-1-phenyl-ethyl]carbamoyl}-amino)-1H-pyrazolo[4,3-c]-pyridin-3-yl]-acetamide], `C[C@@H](NC(=O)Nc1cc2[nH]nc(NC(C)(C)C)c2cn1)c1ccccc1` [Example 351, 1-[3-(tert-butylamino)-1H-pyrazolo[4,3-c]-pyridin-6-yl]-3-[(1R)-1-phenylethyl]urea] is 2.6-fold higher in IC50: 33.3 nM for the first, 88 nM for the second. The first is the more potent here.

Going from `Nc1n[nH]c2cc(NC(=O)N[C@H](COC(F)F)c3ccccc3)ncc12` [Example 352, 1-(3-amino-1H-pyrazolo[4,3-c]-pyridin-6-yl)-3-[(1S)-2-(difluoromethoxy)-1-phenylethyl]urea] to `CCNc1n[nH]c2cc(NC(=O)N[C@H](COC(F)F)c3ccccc3)ncc12` [Example 353, 1-[(1S)-2-(difluoromethoxy)-1-phenylethyl]-3-[3-(ethylamino)-1H-pyrazolo[4,3-c]pyridin-6-yl]urea], the IC50 falls from 1.2 nM to 0.6 nM (2-fold).

`C[C@H](Nc1n[nH]c2cc(NC(=O)N[C@H](C)c3ccccc3)ncc12)C(F)F` [Example 354, 1-(3-{[(1S)-2,2-difluoro-1-methyl-ethyl]amino}-1H-pyrazolo[4,3-c]-pyridin-6-yl)-3-[(1R)-1-phenylethyl]urea] and `C[C@@H](NC(=O)Nc1cc2[nH]nc(N[C@H](C)C(F)F)c2cn1)c1ccccc1` [Example 355, 1-(3-{[(1R)-2,2-difluoro-1-methyl-ethyl]amino}-1H-pyrazolo[4,3-c]-pyridin-6-yl)-3-[(1R)-1-phenylethyl]urea] are within 1.5-fold of each other in IC50: 2.2 nM for the first, 2.9 nM for the second.

Compared with `C[C@@H](NC(=O)Nc1cc2[nH]nc(NC3(C)CCC3)c2cn1)c1ccccc1` [Example 356, 1-{3-[(1-methylcyclo-butyl)amino]-1H-pyrazolo[4,3-c]-pyridin-6-yl}-3-[(1R)-1-phenylethyl]urea], `C[C@@H](NC(=O)Nc1cc2[nH]nc(NC3CCSC3)c2cn1)c1ccccc1` (stereo partly drawn) [Example 359, 1-[(1R)-1-phenylethyl]-3-[3-(tetrahydrothiophen-3-ylamino)-1H-pyrazolo[4,3-c]-pyridin-6-yl]urea] is 45-fold lower in IC50: 54.1 nM for the first, 1.2 nM for the second.

First: CSC[C@@H](NC(=O)Nc1cc2[nH]nc(N)c2cn1)c1ccccc1 [Example 357, 1-(3-amino-1H-pyrazolo[4,3-c]-pyridin-6-yl)-3-[(1S)-2-(methylsulfanyl)-1-phenylethyl]urea]
Second: CCNc1n[nH]c2cc(NC(=O)N[C@H](CSC)c3ccccc3)ncc12 [Example 358, 1-[3-(ethylamino)-1H-pyrazolo[4,3-c]pyridin-6-yl]-3-[(1S)-2-(methylsulfanyl)-1-phenylethyl]urea]
The IC50 of the first is 1.7-fold higher: 1.4 nM for the first, 0.8 nM for the second. The second is the more potent here.

Going from `C[C@@H](NC(=O)Nc1cc2[nH]nc(NC3CC[S+]([O-])C3)c2cn1)c1ccccc1` (stereo partly drawn) [Example 360, 1-{3-[(1-oxidotetrahydrothio-phen-3-yl)amino]-1H-pyrazolo[4,3-c]pyridin-6-yl}-3-[(1R)-1-phenylethyl]urea] to `COCC(C)(C)Nc1n[nH]c2cc(NC(=O)N[C@H](C)c3ccccc3)ncc12` [Example 361, 1-{3-[(2-methoxy-1,1-dimethylethyl)-amino]-1H-pyrazolo[4,3-c]-pyridin-6-yl}-3-[(1R)-1-phenylethyl]urea], the IC50 rises from 2.6 nM to 385 nM (150-fold).

Going from `Nc1n[nH]c2c(F)c(NC(=O)N[C@H](COC(F)F)c3ccccc3)ncc12` [Example 362, 1-(3-amino-7-fluoro-1H-pyrazolo[4,3-c]-pyridin-6-yl)-3-[(1S)-2-(difluoromethoxy)-1-phenylethyl]urea] to `Nc1n[nH]c2c(Cl)c(NC(=O)N[C@H](COC(F)F)c3ccccc3)ncc12` [Example 363, 1-(3-amino-7-chloro-1H-pyrazolo[4,3-c]pyridin-6-yl)-3-[(1S)-2-(difluoromethoxy)-1-phenylethyl]urea], the IC50 rises from 1.3 nM to 52.2 nM (40-fold).

`CC(=O)Nc1n[nH]c2cc(NC(=O)N[C@H](COC(F)F)c3ccccc3)ncc12` [Example 364, N-[6-({[(1S)-2-(difluoromethoxy)-1-phenylethyl]-carbamoyl}amino)-1H-pyrazolo[4,3-c]pyridin-3-yl]-acetamide] gave an IC50 of 0.3 nM.
